Source: patent US11859252B2, “Diagnostic and therapeutic methods for cancer” (Genentech, Inc., priority 2017, dated 2024)
Entries after “also recorded” stand apart in the source; their conditions may differ.

Tests used:
[1] = system: A549 KRAS-mutant lung cancer cell line; experiment: Tool compound combination screen with AZ-628; format: cell-based; conditions: 1 μM AZ-628 versus DMSO, FIG. 1D-1E
Description: A compound library comprising 480 compounds arrayed in 9-point dose response was screened in the absence or presence of a fixed dose of either AZ-628 or DMSO in A549 cells. A549 cells were seeded into 384 well plates, and compound was added 24 h later. Cell viability was determined 120 h post-compound addition (CellTiter Glo). Curves were fitted, and both IC50 and mean viability metrics were calculated. The IC50 is the dose at which inhibition is 50% relative to untreated wells. The mean viability is the average of the fitted viabilities at each tested dose. Mean viability is equivalent to the area under the log-dose/viability curve divided by the total number of tested doses. All data were fitted using Genedata Screener (GDS) software. The combination metric was the difference in mean viability between the AZ-628 treated arm and the DMSO treated arm for each compound.

[2] = system: pMEK, pERK, pRSK, pAKT; experiment: Immunoblot of pathway markers after compound treatment; format: cell-based; conditions: for induction of pMEK by PI3K inhibition: A549 and HCT116 cells, FIGS. 7B-7D
Description: Cells lysed in lysis buffer (0.5% NP40, 20 mM Tris, pH 7.5, 137 mM NaCl, 10% glycerol, 1 mM EDTA) plus protease inhibitor mixture-complete mini (Roche Applied Science, 11836170001) and phosphatase inhibitor mix (Thermo, 78426). Lysates were centrifuged at 15,000 rpm for 10 minutes and the protein concentration determined using BCA (Thermo, 23227). Equal amounts of protein were subjected to SDS-PAGE NuPAGE 4-12% Bis-Tris Gel (Novex, WG-1403) and transferred to nitrocellulose membrane (BioRad, 170-4159). After blocking in blocking buffer (Li-Cor, 927-40000), membranes were incubated with the indicated primary antibodies and analyzed either by the addition of secondary antibodies IRDye 680LT Goat anti-Mouse IgG (H+L) (Li-Cor, 926-68050) or IRDye 800CW goat anti-Rabbit IgG (H+L) (Li-Cor, 926-32211). The membranes were visualized on the LiCor Odyssey CLx Scanner.

[3] = system: KRAS mutant cell lines; experiment: 3-day […]-GLO viability assay of RAF inhibitors, KRAS mutant lines; format: cell-based; conditions: single agent, FIG. 1A
Description: (§1) Seeding densities were optimized for each cell line to obtain 70-80% confluence after 4 days. The cells were plated into 384-well plates (Griener, 781091) and then treated with compound the following day in a final DMSO concentration of 0.1%. The relative numbers of viable cells were measured by luminescence using CellTiter-Glo (Promega, G7573). Viability curves were generated using a four-parameter fit in GraphPad Prism 6.

[4] = system: BRAF-V600E cell lines; experiment: 3-day […]-GLO viability assay of RAF inhibitors, BRAF-V600E lines; format: cell-based; conditions: single agent; BRAF-V600E mutant cell lines; FIG. 1A
Description: as §1

[5] = system: pMEK; experiment: Phospho (Ser 217/221)/Total MEK1/2 assay; format: cell-based; conditions: KRAS mutant; ratio of P-MEK and total MEK; FIG. 1B
Description: Cells were plated at a density of 20,000 cells per 96-well and treated with compound the following day for two hours in a final concentration of 0.2% DMSO. After two hours, the cells were lysed according to manufacturer's protocol (Meso Scale Discovery, K15129D), and the lysates were added to BSA-blocked plates for overnight capture at 4° C. The following day the assay plates were washed three times with TBST and the detection antibody was added for one hour at RT. The plates were then washed three times with TBST. 1× read buffer was added to the plate and immediately read on the Meso Scale Discovery SECTOR Imager 6000. Curves were generated using Graph Pad Prism 6.

[6] = system: A549 cells; experiment: 12×12 matrix titration, Bliss excess, […]-GLO; format: cell-based; conditions: 3 days
Description: For combination synergy studies, cells were plated in 384-well plates (Corning) and treated with varying concentrations of compound, either alone or in combination for 72 hours. Cell viability was determined using CellTiter-Glo Luminescent Cell Viability Assay (Promega, G7573). Synergistic effects were determined using the Bliss independence analysis methods (Greco et al. Pharmacol. Rev. 47: 331-385, 1995; Chou and Talalay. Adv. Enzyme Regul. 22:27-55, 1984; Chou. Cancer Res. 70: 440-446, 2010; Bliss. Ann. Appl. Biol. 25: 31, 1939).

[7] = system: A549 cells; experiment: Clonogenic (colony growth) assay; format: cell-based; conditions: 8 days; crystal violet; FIG. 2F, 5E
Description: Cells were plated in duplicate in 6-well plates at 10,000 cells/well, allowed to attach overnight and treated for 8 days with the indicated compounds. Media with appropriate compounds was replenished every 72 hours. At 8 days cells were rinsed once with PBS, fixed and stained with crystal violet solution (Sigma Aldrich, HT90132) for 20 minutes and washed with water.

[8] = system: MAPK pathway signaling (pERK, pRSK, DUSP6, SPRY4); experiment: Tumor pharmacodynamics in tumor-bearing mice; format: in vivo; conditions: combination of LY3009120 and GDC-0973 vs either alone, 4 days of treatment, FIG. 3C
Description: GEM model tumor samples were collected and stored in RNALater (Qiagen, Valencia, CA). Total RNA was extracted with RNeasy Plus Mini kit (Qiagen) following manufacturer's instructions. RNA quantity was determined using Nanodrop (Thermo Scientific, Waltham, MA).
Transcriptional readouts were assessed using either a Fluidigm instrument or standard RT-PCR assays according to manufacturer's recommendations. RNA (100 ng) was subjected to cDNA synthesis/pre-amplification reactions using the Applied Biosystems High Capacity cDNA RT Kit and TaqMan PreAmp Master Mix as per the manufacturer's protocol (Life Technologies, Carlsbad, CA). […]
To prepare protein lysates, cells were washed once with ice-cold PBS and lysed in 1× Cell Extraction Buffer (Invitrogen) supplemented with protease inhibitor tablet (Roche) and phosphatase inhibitors (Sigma). Protein concentration was determined using BCA Protein Assay (Pierce). […] Antigen-antibody interaction was detected with HRP-conjugated goat anti-rabbit and goat anti-mouse antibodies (Jackson ImmunoResearch) using enhanced chemiluminescence detection reagents (Pierce) or with IRDye 800 conjugated, affinity purified anti rabbit IgG (LI-COR Biosciences) and Alexa Fluor 680 goat anti mouse IgG (Life Technologies) secondary antibodies using the Odyssey Infrared Imaging System (LI-COR Biosciences).

[9] = Plasma and tumor drug concentrations; format: in vivo, mice; conditions: combination with GDC-0973, FIG. 3D
[10] = system: NRAS mutant melanoma cell line; experiment: Viability of NRAS mutant melanoma versus BRAF-V600E and wild-type lines; format: cell-based; conditions: FIG. 8A
Description: Compounds were screened in nine-point dose response using a three-fold dilution. Cells were seeded into 384-well plates 24 hours prior to compound addition. Cells were then incubated with compound for 72 hours or 120 hours before assaying viability (CellTiter-Glo, Promega). Assays were performed in biological triplicate. […] Mean viability is equivalent to the area under the log-dose/viability curve divided by the total number of tested doses.

[11] = system: HCT116 colon xenograft tumor; experiment: HCT116 colon xenograft tumor model
Description: The formulations were mixed well by vortexing before dosing. Test articles were stored in a refrigerator set to maintain a temperature range of 4° C.-7° C.
Only animals that appeared to be healthy and that were free of obvious abnormalities were used for each study. Tumor volumes were determined using digital calipers (Fred V. Fowler Company, Inc.) using the formula (L×W×W)/2. […] Mice were weighed twice a week using a standard scale.

[12] = system: RAS-GTP; experiment: Ras activity assay (RAF1-RBD pull-down); format: cell-based; conditions: A549, 24 hours, RAF1-RBD pull-down, FIG. 7E
Description: Levels of active GTP-loaded Ras were determined by GST-Raf-RBD pull-down assay (Thermo Scientific, 16117). In brief, GST-Raf-RBD fusion proteins were incubated with glutathione beads, and cells were collected in lysis buffer as recommended by the manufacturer. The cell lysates were incubated with the GST-Raf-RBD immobilized beads for 1.5 hours at 4° C. Bound proteins were eluted with SDS sample buffer and analyzed by Western blot.

SMILES: O=C(NC[C@H](O)CO)c1ccncc1Nc1ccc(I)cc1F [pimasertib]
- hit ranking / mean viability difference with AZ-628 [1]: scored highest among the compounds tested

SMILES: Cc1nc(-c2cn3c(n2)-c2ccc(-c4cnn(C(C)(C)C(N)=O)c4)cc2OCC3)n(C(C)C)n1 [taselisib]
- hit ranking / mean viability difference with AZ-628 [1]: notable hits
- induction of pMEK by PI3K inhibition ([2]; 24 hours): doing so at lower concentrations

SMILES: O=C(NOC[C@H](O)CO)c1ccc(F)c(F)c1Nc1ccc(I)cc1F [PD901]
- hit ranking / mean viability difference with AZ-628 [1]: scored highest among the compounds tested

SMILES: COc1cc(F)c(F)c(Nc2ccc(I)cc2F)c1NS(=O)(=O)C1(C[C@H](O)CO)CC1 [refametinib]
- hit ranking / mean viability difference with AZ-628 [1]: scored highest among the compounds tested

SMILES: O=C(c1c(F)ccc(NS(=O)(=O)N2CC[C@@H](F)C2)c1F)c1c[nH]c2ncc(-c3cnc(C4CC4)nc3)cc12 [PLX-8394]
- activity in cell viability assay [3]: but not in KRAS mutant cell lines
- activity in cell viability assay [4]: showed activity in BRAF-V600E mutant cell lines
- paradoxical activation of downstream pMEK [5]: do not induce paradoxical activation
- synergy with cobimetinib (Bliss excess) ([6]; FIG. 2A): did not synergize with MEK inhibitors in KRAS mutant cell lines

SMILES: CNc1ncc2cc(-c3cc(NC(=O)NCCC(C)(C)C)c(F)cc3C)c(C)nc2n1 [LY3009120]
- synergy with cobimetinib in colony formation [7]: marked synergy
- suppression of DUSP6 and SPRY4 in tumor [8]: deeper suppression of downstream MAPK target genes, DUSP6 and SPRY4
- suppression of pERK and pRSK in tumor ([8]; all time points): better suppression of pERK and pRSK
- drug exposure in combination [9]: not due to increased drug exposure
- effect on mean viability, NRAS mutant vs BRAF-V600E [10]: approximately equivalent effects on mean viability
- tumor growth, combination with cobimetinib ([11]; HCT116, LY3009120+GDC-0973, FIG. 3A): capable of effectively regressing the tumors
- tumor growth, single agent ([11]; HCT116, LY-3009120 25 mg/kg IP QD, cobimetinib 5 mg/kg PO QD, FIG. 3A): modestly inhibited tumor growth
- tolerability / body weight ([11]; HCT116 xenograft mice, combination with cobimetinib, FIG. 3B): well tolerated in the mice, resulting in little or minimal changes in body weight post-treatment

SMILES: CS(=O)(=O)N1CCN(Cc2cc3nc(-c4cccc5[nH]ncc45)nc(N4CCOCC4)c3s2)CC1 [pictilisib]
- hit ranking / mean viability difference with AZ-628 [1]: notable hits; also recorded: among the top hits of the screen
- pERK and pRSK levels ([2]; A549, 24 hours, dose-dependent, FIG. 7D): increased pERK and pRSK levels
- pAKT inhibition ([2]; A549, pictilisib alone, 24 hours, FIG. 7G): robustly inhibit pAKT
- induction of pMEK by PI3K inhibition ([2]; 24 hours): doing so at lower concentrations; also recorded: dose-dependent induction of pMEK
- RAS-GTP levels [12]: dose-dependent induction of RAS-GTP levels
- RAS-GTP levels ([12]; listed as Pictilisib): increase levels of RAS-GTP (albeit at higher concentrations) similar to that induced by cobimetinib

SMILES: CNS(=O)(=O)Nc1nccc(Cc2c(C)c3ccc(Oc4ncccn4)cc3oc2=O)c1F [CH-6766]
- synergy with AZ-628 (Bliss excess) ([6]; full-dose Bliss matrix, FIG. 1G): less synergistic with AZ-628
- induction of pMEK ([2]; A549 cells, 24 hours at 1 μM, FIG. 1F): do not induce pMEK

SMILES: CC(C)(C)c1nc(-c2cccc(NS(=O)(=O)c3c(F)cccc3F)c2F)c(-c2ccnc(N)n2)s1 [dabrafenib]
- activity in cell viability assay [3]: but not in KRAS mutant cell lines
- activity in cell viability assay [4]: showed activity in BRAF-V600E mutant cell lines
- paradoxical activation of downstream pMEK [5]: led to paradoxical activation of downstream pMEK in KRAS mutant tumors
